System: globules rouges des drépanocytaires
Experiment: Inhibition of sickling of human erythrocytes from sickle-cell patients under deoxygenation (Nomarski microscopy)
Assay type: cell-based, humains
Settings: inhibition de la falciformation des érythrocytes; incubation 1 h at 37°C, pH 7,40, with product; molar ratio produit/hémoglobine initially 0,5 to 20; ratio used for the table values not given
Description: L'inhibition de la falciformation des érythrocytes humains a été évaluée selon la méthode consistant à laver et incuber dans un tampon salin (pH 7,40 - 0,15 M), les globules rouges des drépanocytaires pendant une heure à 37°C dans un bainmarie sous agitation circulaire en présence du produit ci-dessus à différentes concentrations. Dans cette opération le rapport molaire produit/hémoglobine est testé initialement dans l'intervalle allant de 0,5 à 20. En fonction des résultats obtenus, ce rapport est modifié. A la fin de l'incubation, l'excès de produit est enlevé par lavage. La suspension cellulaire ajustée à un hématocrite de 5 % est transférée dans un Erlenmeyer et incubée à 37°C sous un courant d'un mélange humidifié d'azote et d'oxygène. La concentration d'oxygène est réglée par une pompe à mélange gazeux. Le gaz effluent est transféré dans un autre tube contenant du formaldéhyde. A la fin de l'incubation, la suspension cellulaire est transférée dans le formaldéhyde par simple retournement de la fiole.
La proportion des cellules déformées et de celles ayant les caractéristiques de drépanocytes (présentant deux prolongements filiformes) est évaluée à l'aide d'un microscope ayant une optique interférentielle de NOMARSKY. L'inhibition de la falciformation a été calculée selon la formule suivante: • % cellules falciformées - % cellules falciformées en témoins présence de la drogue % cellules falciformées du témoin

Compound | % inhibition
c1c[nH]c(SSc2ncc[nH]2)n1 [2,2'-dithiodi(1H-imidazole)] | 80%
C1CSC(SSC2=NCCS2)=N1 [2,2'-dithiodi(4,5-dihydrothiazole)] | 90%
c1cnc(SSc2ncccn2)nc1 [2,2'-dithiodipyrimidine] | 50%
c1nc(SSc2nc[nH]n2)n[nH]1 [3,3'-dithiodi(1H-1,2,4-triazole)] | 100%
NCCSSCCN [cystamine, reference compound] | 33%
NC(=O)CSSCC(N)=O [dithio-diacétamide] | 80%
CN(C)C(=O)CSSCC(=O)N(C)C [dithiodi(N,N-diméthyl)acétamide] | 95%
N=C(N)SSC(=N)N [dithiodiformamidine] | 100%

System: falciformation
Experiment: not given
Settings: literature (Inserm Symposium 1979); cited from earlier work

Compound | inhibition de la falciformation
NCCSSCCN [cystamine, reference compound] | particulièrement active
